3 compounds from patent US12103952B2, “Methods for expressing proteins in axons” (Cornell University, priority 2010, dated 2024) can be followed below.

Holding throughout (assay type): cell-based, rat
For one assay, the system named is CREB. As to the kind of experiment: CREB levels in severed axons by immunofluorescence. Conditions: severed axons, inhibitor present during NGF removal. As for the experimental part: FIGS. 7A-B are results showing the axonal translation and retrograde transport of endogenous CREB. (A) CREB levels in severed axons of E15 DRGs were assayed by immunofluorescence with a CREB-specific antibody. CREB was depleted on removal of NGF, with near complete loss of fluorescence signals by 3 hours. […] The error bars represent s.e.m. (n=40). (B) CREB is depleted from axon terminals in a microtubule-dependent manner. CREB levels in severed axons were monitored, as in A, after removal and restoration of NGF, in the presence of LLnL or colchicine. Colchicine, but not LLnL, blocked the reduction in CREB levels following removal of NGF. The error bars represent s.e.m. (n=40).
E15 rat or E13 mouse embryonic dorsal root ganglion (DRG) explants were plated on glass-bottom culture dishes (MatTek) or glass coverslips pre-coated with 33 μg/ml poly-D-lysine and 1 μg/ml laminin. CREB^α/Δ−/+ animals used to generate CREB^α/Δ−/− embryos were from Jackson Labs. E15 dissociated DRG neurons were prepared as described by Wu et al., Nature 436, 1020-1024 (2005). DRGs were cultured in B27/Neurobasal medium (Invitrogen) supplemented with 100 ng/ml nerve growth factor (NGF) and […] 5′-fluorodeoxyuridine (5-FdU) for 3 days. siRNA-mediated knockdown in DRG neurons has been described previously by Higuchi et al., Biochemical & Biophysical Research Communications 301, 804-809 (2003) and was performed using siRNAs listed in Table S3. For measurements of CREB levels in isolated axons, axons were severed from cell bodies by removing the explant with a flame-sharpened Pasteur pipette (Wu et al., Nature 436, 1020-1024 (2005)). Modified Boyden chambers were based on the procedure of Twiss (Zheng et al., Journal of Neuroscience 21, 9291-9303 (2001)) and modified to obtain distal axons as described by Wu et al., Nature 436, 1020-1024 (2005). mRNA from harvested axons (Wu et al., Nature 436, 1020-1024 (2005)) was used to prepare a cDNA library using a modified, unbiased single cell protocol as described below. See also Tietjen et al., Neuron 38, 161-175 (2003). Compartmented (Campenot) cultures were prepared as described below. See also Campenot, Proc Natl Acad Sci USA 74, 4516-4519 (1977)).
Images and measurements of signals in axons were taken from the terminal 50 μm of the axon, except where indicated. Analyzed axons were a minimum of 2000 μm for all experiments. DRGs were fixed with 4% PFA in CBS overnight at 4° C., permeabilized with 0.5% Triton X-100/TBS, and blocked in 4% BSA/TBS for 1 hour. DRGs were labeled with antibodies (Table S4) in 2% BSA/0.1% Triton X-100/TBS overnight at 4° C. For image acquisition details, see below.
The axonal localization of CREB was also examined by immunofluorescence. Axons were severed from cultured DRG explants to rule out potential contributions from anterograde transport of cell body-derived CREB. […] Although the majority of CREB protein localized to the nucleus, with substantially lower levels in axons (FIG. 4D), the immunofluorescence signal in axons was specific. Similar immunofluorescence staining was seen using a different CREB-specific antibody that recognized a non-overlapping epitope.
The importin proteins, which bind nuclear-localization sequences (NLS) (Goldfarb et al., Trends in Cell Biology 14, 505-514 (2004)), are present in axons and mediate the retrograde trafficking of axonally-injected fluorescently-labeled NLS peptides (Hanz et al., Neuron 40, 1095-1104 (2003)). Since CREB contains a NLS that mediates its nuclear localization (Waeber & Habener, Mol Endocrinol 5, 1418-1430 (1991)), axonal CREB may be retrogradely transported to the cell body. To determine if endogenously-expressed CREB is retrogradely trafficked, we examined the time course of CREB reduction in axons upon replacement of media with NGF-free media. […]

The test system of assay [1] is CREB reporter mRNA translation in DRG axons. As to the kind of experiment: myr-dEGFP3′CREB Sindbis translation reporter in axons. Conditions: 40 μM LLnL, within 5 min, myr-dEGFP3′CREB-infected axons. The source says:
FIGS. 5A-C are results showing NGF-dependent translation of a CREB reporter mRNA in axons. (A) Schematic diagram of the Sindbis viral reporter construct used to monitor CREB translation. The reporter contains a myristoylated, destabilized EGFP (myr-dEGFP) with the 3′UTR of CREB, expressed under control of the Sindbis subgenomic promoter (PSG). (B) E15 DRG explant cultures were infected with Sindbis constructs expressing myr-dEGFP3′CREB on DIV3 and fluorescence (bottom panel) and phase (top panel) images, approximately 1000 μm from the cell body were collected after 24 hours. Fluorescence images are shown in inverted contrast in order to more readily visualize puncta. Scale bar, 25 μm. […] EGFP fluorescence co-localizes with a population of S6-labeled ribosomal clusters. […]
FIGS. 6A-H are data showing that axonal CREB is specifically translated in response to NGF. […] (B) E15 DRG explant cultures were infected with Sindbis constructs expressing myr-dEGFP3′RhoA or myr-dEGFP3′H1f0 on DIV3 and fluorescence images were collected after 24 h. […] (D) Axons from DIV3 DRGs were analyzed for CREB and mitochondrial localizations by immunofluorescence using CREB-specific and VDAC/porin1-specific antibodies. […] CREB mRNA was detected by FISH using a CREB specific riboprobe. […] (H) Axons of DIV3 DRG explant cultures were analyzed by immunofluorescence for NGF effectors CREB, pTrkA and pErk5 at 3 DIV. […]

The next assay deals with E15 DRG explant cultures. As to the kind of experiment: Retrograde transport of photoactivatable Dendra-CREB reporter. The following applies: in presence of inhibitor. The protocol: FIGS. 8A-D are results showing the retrograde transport of a photoactivatable fluorescent CREB reporter protein. (A) E15 DRG explant cultures were infected with Sindbis constructs expressing Dendra or Dendra-CREB transcripts. Dendra and Dendra-CREB were visualized as green fluorescence (top panel), and growth cone-localized Dendra[-CREB] was photoactivated to its red form by 50 ms illumination of the boxed regions with a 408 nm laser. Movement of photoactivated Dendra signals was analyzed within the axon determined by green Dendra fluorescence mask. […] Photoactivated Dendra[-CREB] images are shown inverted in order to more readily visualize signals. Scale bar, 10 μm. (B) Quantification of data in (A). […] The expected diffusion rate of Dendra-CREB was calculated at various elapsed time points, using a previously measured diffusion coefficient (D) in neurons (Bloodgood & Sabatini, Science 310, 866-869 (2005)), in the formula x^2=(2Dt), where x is the average displacement. […] (C) Dendra or Dendra-CREB was photoactivated by 1 s illumination of a 40 μm axon segment approximately 1 mm from its respective cell body and levels of photoactivated Dendra fluorescence were analyzed in the respective cell nucleus. […] (D) Quantification of data in (C). n=10 cells per data point. *p=0.0012. […]

SMILES strings stand for the structures. Non-standard residues stand in square brackets, D forms with d. Residues, ends and D or L forms follow the SMILES beside them. Nle = CCCC[C@H](N)C(=O)O

In the case of `CCCC[C@@H](C=O)NC(=O)[C@H](CC(C)C)NC(=O)[C@H](CC(C)C)NC(C)=O` [LLnL] (Ac-Leu-Leu-[Nle]-aldehyde), the “reduction of CREB levels upon removal of NGF” value in the assay on CREB is “unaffected”. For the same compound, the eGFP fluorescence signal entry in assay [1] was “increased twofold”.
Consider `COc1cc2c(c(OC)c1OC)-c1ccc(OC)c(=O)cc1[C@@H](NC(C)=O)CC2` [colchicine], for which the “reduction of CREB levels upon removal of NGF” value in the assay with CREB is reported as “abolished the reduction in CREB levels”. The “retrograde transport of Dendra-CREB” value in the assay on E15 DRG explant cultures was “significantly blocked”.
As to `C=C(CC)C(=O)c1ccc(OCC(=O)O)c(Cl)c1Cl` [ethacrynic acid], in the assay with E15 DRG explant cultures, the “retrograde transport of Dendra-CREB” value is “significantly blocked”.
